Source: PubChem BioAssay AID1552 (Sanford-Burnham Center for Chemical Genomics, 2009)
The source made the active and inactive calls. The rule behind the calls is not given here.

Molecular target: Ubiquitin-conjugating enzyme E2 N (Homo sapiens) (UniProt P61088)
Test: NMR detection of UBE2N ligand binding – biophysical, purified protein (AID 1552)
Settings: NMR binding to purified UBE2N

Ubiquitin-conjugating enzyme E2 N (Homo sapiens), sequence (P61088 whole entry, looked up): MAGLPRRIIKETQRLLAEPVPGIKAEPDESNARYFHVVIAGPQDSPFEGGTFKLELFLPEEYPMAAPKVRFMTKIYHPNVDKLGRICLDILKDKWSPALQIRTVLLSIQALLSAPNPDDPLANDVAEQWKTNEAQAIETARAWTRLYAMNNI

Compound | Kd
COC(=O)c1c(C)cc(OC(=O)c2c(C)cc(O)c(C=O)c2O)c(C)c1O | > 4 mM (inactive)
C=C1C(=O)OC2CC1C(OC(C)=O)C/C(C)=C/CC/C(C)=C/CC[C@]2(C)O (stereo partly drawn) | > 4 mM (inactive)
CCNC(=S)N1CCC(C(N)=O)CC1 | > 4 mM (inactive)
O=c1cc(O)n(-c2ccc(F)cc2)c(=S)[nH]1 | > 4 mM (inactive)
O=C(CSc1ncn[nH]1)c1ccc2c(c1)OCO2 | > 4 mM (inactive)
O=C1CS/C(=N/N=C2CCCC2)N1 | > 4 mM (inactive)
Cc1cc([N+](=O)[O-])cc[n+]1[O-] | > 4 mM (inactive)
C[C@H]1[C@H](C)CC[C@]2(C(=O)O)CC[C@]3(C)C(=CCC4[C@@]5(C)C[C@@H](O)[C@H](O)[C@@](C)(CO)C5[C@H](O)C[C@]43C)[C@H]12 (stereo partly drawn) | > 4 mM (inactive)
Cn1[nH]c(C(F)(F)F)cc1=O | > 4 mM (inactive)
CC(=O)O[C@@H]1CC2C(C)(C)[C@H](O)C[C@H](O)[C@]2(C)C2CC[C@@]3(C)C(=CC(=O)O[C@H]3c3ccoc3)[C@@]21C (stereo partly drawn) | > 4 mM (inactive)
Cc1[nH]c(=O)[nH]c(=O)c1N1CCOCC1 | > 4 mM (inactive)
Cc1cc(-c2ccccc2)nc2cc(C(N)=O)nn12 | > 4 mM (inactive)
[O-][n+]1cc(O)c(CN2CCOCC2)c2ccccc21 | > 4 mM (inactive)
Cc1cc(C)nc(N(C#N)Cc2ccccc2)n1 | > 4 mM (inactive)
COc1cccc(-c2cc(=O)c3cc(OC)ccc3o2)c1 | > 4 mM (inactive)
O=C(Nc1cnc2ccccn2c1=O)c1ccc(F)cc1 | > 4 mM (inactive)
NC(=O)c1ccc(N=Cc2ccc[nH]2)cc1 | > 4 mM (inactive)
CN=C(C)c1c(O)n(C)c(=S)n(C)c1=O | > 4 mM (inactive)
COC(=O)Cc1cc(=O)n(-c2nc3ccccc3s2)[nH]1 | > 4 mM (inactive)
C[C@H](CCC(=O)O)[C@H]1CCC2C3C(CC[C@@]21C)[C@@]1(C)CC[C@@H](O)C[C@H]1C[C@@H]3O (stereo partly drawn) | > 4 mM (inactive)
OCc1cccc2c1OCO2 | > 4 mM (inactive)
CC(=O)c1cc(C)ccc1OC(=O)c1cccnc1 | > 4 mM (inactive)
Cc1csc(SCC(=O)N2CCCC2)n1 | > 4 mM (inactive)
NC(CSCSCC(N)C(=O)O)C(=O)O (stereo not drawn) | > 4 mM (inactive)

Compound | Kd
Cc1ccc2[nH]c3nc(=S)[nH]nc3c2c1 | > 4 mM (inactive)
O=C(NCc1ccccn1)c1ccccc1Cl | > 4 mM (inactive)
CC(=O)Nc1c(Cl)cnn(-c2ccccc2)c1=O | > 4 mM (inactive)
COc1ccc(NC(=O)C(N)=O)cc1Cl | > 4 mM (inactive)
CC1(C)Cc2nc3n[nH]c(N)c3cc2CO1 | > 4 mM (inactive)
CN1C(CC(=O)c2ccccc2)CCCC1CC(O)c1ccccc1 (stereo not drawn) | > 4 mM (inactive)
O=C1CCCC2C3CC(CN12)[C@@H]1CCCCN1C3 (stereo partly drawn) | > 4 mM (inactive)
Nc1cccc2nsnc12 | > 4 mM (inactive)
c1cncc(-c2nnc(-c3cccnc3)nn2)c1 | > 4 mM (inactive)
CSc1ccccc1NC(=O)c1ccncc1 | > 4 mM (inactive)
O=C(O)CN1C(=O)c2ccc(C(=O)O)cc2C1=O | > 4 mM (inactive)
CCCCn1c(S(=O)(=O)O)nc2ccccc21 | > 4 mM (inactive)
O=C(NC1CSCC1O)c1ccccc1 (stereo not drawn) | > 4 mM (inactive)
OCCNc1nc2ccc(Cl)cc2[nH]1 | > 4 mM (inactive)
O=C1CSC(=O)N1c1cccc(O)c1 | > 4 mM (inactive)
CC(=O)Nc1sc(C)c(C)c1C(N)=O | > 4 mM (inactive)
Cn1nc(C(C)(C)C)cc1N | > 4 mM (inactive)
Cc1cccc(NC(=O)NC(N)=O)c1 | > 4 mM (inactive)
Clc1ccccc1OCc1nc(-c2ccccn2)no1 | > 4 mM (inactive)
O=C(CC1NC(=O)NC1=O)Nc1ccccc1 (stereo not drawn) | > 4 mM (inactive)
CCCNC(=O)CSc1ncccc1C(=O)O | > 4 mM (inactive)
O=C1C=CC2=C3c4cc(O)c(O)cc4CC3(O)COC2=C1O (stereo not drawn) | > 4 mM (inactive)
Cc1cc(NC(=O)CCCn2cnc([N+](=O)[O-])n2)no1 | > 4 mM (inactive)
O=C1Nc2ccc(S(=O)(=O)NCCO)c3cccc1c23 | > 4 mM (inactive)

Compound | Kd
COc1ccc(-c2cc3nc4n(c(=O)c3s2)CCC4)cc1 | > 4 mM (inactive)
O=C1C2CCCCC2C(=O)N1c1ccc(O)cc1 (stereo not drawn) | > 4 mM (inactive)
CS(=O)(=O)N1CCN(C(=O)c2ccccc2)CC1 | > 4 mM (inactive)
Cn1c(CNc2ccccc2)cc(=O)n(C)c1=O | > 4 mM (inactive)
Cc1nnc(NCCN2CCOCC2)[nH]c1=O | > 4 mM (inactive)
Cc1ccc(N2NC(=O)CC2=O)cc1C | > 4 mM (inactive)
Cc1cc(C)n2c(SCc3c(C)noc3C)nnc2n1 | > 4 mM (inactive)
CCCC(=O)N1CCSCC1 | > 4 mM (inactive)
Cc1nc2ccc(C(=O)N3CCSCC3)cc2s1 | > 4 mM (inactive)
CCOC(=O)c1ccc(F)cc1F | > 4 mM (inactive)
CCC[C@H]1CC2=C(C[C@@H](CC)CC3=C1C(=O)OC3=O)C(=O)OC2=O | > 4 mM (inactive)
Cc1cc(Oc2ccccc2)nc(N)n1 | > 4 mM (inactive)
CN(C)C(=O)CSc1nc(N)cc(=O)[nH]1 | > 4 mM (inactive)
COc1cc(OC)c(-c2c(OC)cc(OC)cc2OC)c(OC)c1 | > 4 mM (inactive)
CC(=O)Nc1cccc(N2C(=O)CCC2=O)c1 | > 4 mM (inactive)
CCOC(=O)c1c(C)nc2ccccn12 | > 4 mM (inactive)
O=C(Nc1ccccc1[N+](=O)[O-])c1ccc(=O)[nH]n1 | > 4 mM (inactive)
COc1ccc([C@H]2Oc3c(I)c(OC)cc(OC)c3C[C@@H]2O)cc1OC | > 4 mM (inactive)
CS(=O)(=O)CCCCN=C=S | > 4 mM (inactive)
CN(C)S(=O)(=O)c1ccccc1C#N | > 4 mM (inactive)
COc1cc(S(=O)(=O)N(C)C)ccc1F | > 4 mM (inactive)
CC(=O)N(C)Cc1nc2ccccc2n1C | > 4 mM (inactive)
O=C(O)CNC(=O)c1ccc([N+](=O)[O-])cc1 | > 4 mM (inactive)
NC(N)=NOCC[C@H](N)C(=O)O | > 4 mM (inactive)

Compound | Kd
CN1CCC(NC(=O)Cc2c(F)cccc2Cl)CC1 | > 4 mM (inactive)
CCOC(=O)c1c(-c2ccncc2)csc1N | > 4 mM (inactive)
Cc1c(C(=O)OC(C)C)[nH]c2c1C(=O)CCC2 | > 4 mM (inactive)
CC(CCC(=O)O)[C@H]1CCC2C3CC[C@@H]4C[C@H](O)CC[C@]4(C)C3C[C@H](O)[C@@]21C (stereo partly drawn) | > 4 mM (inactive)
Nc1ncc2[nH]cnc2n1 | > 4 mM (inactive)
CC1(C)C2CC[C@]3(C)C(C(=O)C=C4[C@@H]5C[C@@](C)(C(=O)O)CC[C@]5(C)CC[C@]43C)[C@@]2(C)CC[C@@H]1O (stereo partly drawn) | > 4 mM (inactive)
CCOC(=O)c1c(C)n([O-])c2ccccc2[n+]1=O | > 4 mM (inactive)
CCNC(=O)CC[C@H](N)C(=O)O | > 4 mM (inactive)
Cc1ccccc1N1C(=O)CC(=O)NC1=O | > 4 mM (inactive)
O=C(Nc1ccccc1)Nc1ccccn1 | > 4 mM (inactive)
Nc1nc2ccc(N3CCOCC3)cc2s1 | > 4 mM (inactive)
O=C(O)CCCNC(=O)c1ccccc1C(=O)O | > 4 mM (inactive)
COC(=O)c1noc(-c2ccc(OC)cc2)n1 | > 4 mM (inactive)
Cc1nc(CC(=O)O)c(-c2ccccc2)s1 | > 4 mM (inactive)
O=C(O)CCn1c(=O)oc2ccccc21 | > 4 mM (inactive)
COC(CC(=O)O)c1nc2ccccc2s1 (stereo not drawn) | > 4 mM (inactive)
NCc1cccc2nsnc12 | > 4 mM (inactive)
O=C(O)c1ccc2c(c1)CCO2 | > 4 mM (inactive)
COC(=O)c1ccc(C(=S)N2CCOCC2)cc1 | > 4 mM (inactive)
NC(=O)C12CC3CC(C1)C(=O)C(C3)C2 | > 4 mM (inactive)
CNC(=O)COc1cccc2c1CCNC2=O | > 4 mM (inactive)
O=C(Nc1nncs1)c1c(F)c(F)c(F)c(F)c1F | > 4 mM (inactive)
COc1cc2c(cc1O)CC1c3c(cc(O)c(OC)c3-2)CCN1C (stereo not drawn) | > 4 mM (inactive)
COc1ccc(-c2noc(-c3ccco3)n2)cc1OC | > 4 mM (inactive)

Compound | Kd
CN1CCC(O)N1C(=O)c1ccccc1O (stereo not drawn) | > 4 mM (inactive)
CN1CCC(N2CCOCC2)CC1 | > 4 mM (inactive)
CC1=C(C(N)=O)C(c2ccccc2)NC(=O)N1 (stereo not drawn) | > 4 mM (inactive)
Cc1cc(SCCF)n2ncnc2n1 | > 4 mM (inactive)
N#CC(O[C@@H]1O[C@H](CO[C@@H]2O[C@H](CO)[C@@H](O)[C@H](O)[C@H]2O)[C@@H](O)[C@H](O)[C@H]1O)c1ccccc1 (stereo partly drawn) | > 4 mM (inactive)
COc1cc2c(cc1OC)[C@@H]1C(=O)c3ccc4c(c3O[C@@H]1CO2)CC(C(C)C)O4 (stereo partly drawn) | > 4 mM (inactive)
CCOC(=O)C1=C(O)CCN(C)C1 | > 4 mM (inactive)
CS(=O)(=O)Nc1ccccc1C(=O)c1ccccc1 | > 4 mM (inactive)
CCn1c(C)c(C(C)=O)c(N2CCOCC2)nc1=S | > 4 mM (inactive)
CNc1nnc(Cc2csc(N)n2)s1 | > 4 mM (inactive)
CCCCCC/C=C\CCCCCCCc1cccc(O)c1C(=O)O | > 4 mM (inactive)
Cc1cc[n+](-c2nc([O-])sc2C=O)cc1 | > 4 mM (inactive)
CC1CCCN(C/C(O)=C(\C#N)c2nc3ccccc3[nH]2)C1 (stereo not drawn) | > 4 mM (inactive)
O=C(O)CCN1CCOCC1 | > 4 mM (inactive)
COC(=O)c1ccc2nsnc2c1 | > 4 mM (inactive)
CC1C[C@H]2CC(=O)[C@H]3CCCN4CCC[C@H]2[C@]34C1 (stereo partly drawn) | > 4 mM (inactive)
CC(=O)N(c1ccccc1)C1C=CS(=O)(=O)C1 (stereo not drawn) | > 4 mM (inactive)
CC(C)(C)P(=O)(O)c1ccccc1 | > 4 mM (inactive)
CN(c1ccccc1C(=O)N1CCOCC1)S(C)(=O)=O | > 4 mM (inactive)
Nc1ccc2c(c1)N1CCN=C1S2 | > 4 mM (inactive)
Cc1nnsc1C(=O)N(C)c1ccccc1 | > 4 mM (inactive)
O=C(NCO)c1ccc([N+](=O)[O-])cc1 | > 4 mM (inactive)
